Test results reported in EP0594651B1, “DRIED BLOOD CELLS AND METHOD OF PREPARATION” (QUADRANT HOLDINGS CAMBRIDGE LIMITED, priority 1991, dated 1993).

Columns and labels:
platelets = experiment: Freeze-drying of platelets from Platelet Rich Plasma and recovery of whole platelets on rehydration (Example 5); assay type: cell-based; settings: result in words
Description: Blood was collected into the anti-coagulant, acid-citrate-dextrose, and the mixture then centrifuged at approximately 1100 x g for three minutes to harvest Platelet Rich Plasma.
Aliquots of the Platelet Rich Plasma were then incubated in the presence of varying concentrations of proline, carnitine and trehalose on their own, and proline and carnitine in combination with trehalose, as well as a test sample in 7.5% NaCl. All samples were incubated for 37°C for 2 hours on a slowly moving rotary mixer, before freezing and drying.
The dehydrated samples were rehydrated with either 1 volume of water, or 1 volume of water containing 2% carnitine. […] Results obtained when rehydrating with water in the presence of 2% carnitine were generally about 25% better than those achieved with water alone.

blood cells = experiment: Vacuum-drying of blood cells in trehalose without organic osmolyte, then rehydration; assay type: cell-based; settings: result in words; vacuum-drying in the absence of an organic osmolyte
erythrocytes [1] = experiment: Erythrocytes incubated in an organic osmolyte, freeze-dried, rehydrated in PBS with 40% glucopyranosyl sorbitol; intact erythrocytes counted microscopically (Example 1); assay type: cell-based; settings: for % Intact Cells: incubated 2 hours at 37°C, freeze-dried; for freeze drying of erythrocytes: result in words
Description: Whole blood was collected by venepuncture into the anticoagulant EDTA (used at a final concentration of 5mM), and then incubated for 2 hours at 37°C in one of the following osmolytes: proline, carnitine and betaine, over a range of concentrations. The samples were then frozen into a thin shell on the walls of the vessel and then placed under vacuum for drying. The vacuum was typically less than 25 µm Hg ([…]), and the samples were held under this vacuum for approxiamtely 16 hours.
The freeze-dried samples were rehydrated by resuspending some of the dry material in an hypertonic solution consisting of phosphate buffered saline (PBS) containing glucopyranosyl sorbitol at a concentration of 40%. The samples were then assesed microscopically to determine the number of intact erythrocytes.

erythrocytes [2] = experiment: Freeze-dried erythrocytes rehydrated with solution A, then PBS; integrity assessed microscopically (Example 2); assay type: cell-based; settings: then equivalent amount of PBS
Description: After the dehydrated samples were resuspended fully, an equivalent amount of PBS was added, and the integrity of the erythrocytes were assessed microscopically.

erythrocytes [3] = experiment: Freeze-dried blood rehydrated with solution A and PBS; intact cells assessed by fluorescein dye exclusion (Example 4); assay type: cell-based
Description: The solutions were incubated at 37°C for 2 hours and then frozen onto the walls of a […] in a thin shell by first immersing the flask while rotating it, in a mixture of solid carbon dioxide and methylated spirits. […] The blood was dried under this vacuum for at least 16 hours. […] The dry blood was rehydrated with 1 volume of solution A (see Example 2), and when all the dry blood was resuspended, an equivalent volume PBS was added.

red cells = red cells dried in proline plus sugar 10% (w/v), stored at room temperature for 3 months
Description: Fresh blood was withdrawn by venepuncture from healthy volunteers into the anti-coagulant EDTA (final concentration 5mM). The blood was centifuged and then washed 3 to 4 times in a potassium free buffered salt solution which contains the following ingredients: Table 5
The cells were then resuspended finally at 50% and incubated for 60 minutes at 4°C, and aliquots were then dried at ambient temperature (evaporation cooled the samples) under a vacuum of less than 5 x 10^-2 mbar (50 Pa) for approximately 16 hours.
The red cells were dried in aliquots of 250µl and the rehydration was inititated by the addition of 250µl of solution 1 to the dry aliquots. The cells were allowed to rehydrate slowly, and when in solution, 500µl of solution 2 was added. At this stage the cells were viewed under the microscope and the number of apparently intact cells was counted. A further 1 ml of solution 2 was then added and the cells were then centrifuged at 5,220 x g for 5 minutes. The supernatant was removed and the cells were resuspended in solution 2. For typing the red cell antigenic status, an equal volume of the red cells in solution 2 was added to an equal volume of an antibody mixed 1 : 1 with solution 1.
The concentration of each sugar used was 10% (w/v). […]

Row | SMILES | platelets recovered on reconstitution (platelets) | cells on rehydration (blood cells) | % Intact Cells (erythrocytes [1]; Final Concentration 5) [%] | % Intact Cells (erythrocytes [1]; Final Concentration 10) [%] | % Intact Cells (erythrocytes [1]; Final Concentration 15) [%] | % Intact Cells (erythrocytes [1]; Final Concentration 20) [%] | freeze drying of erythrocytes (erythrocytes [1]) | % Intact Cells (erythrocytes [2]) [%] | % Intact Cells (erythrocytes [3]) [%] | % apparently intact cells (red cells) [%]
1 | OC[C@H]1O[C@H](O[C@H]2O[C@H](CO)[C@@H](O)[C@H](O)[C@H]2O)[C@H](O)[C@@H](O)[C@@H]1O [trehalose] | almost exclusively 'ghost' platelets | only a very small percentage of cells | – | – | – | – | – | – | – | –
2 | O=C(O)[C@@H]1CCCN1 [Proline, proline] | – | – | 0 | 62 | 81 | < 1 | particularly successful | 79 | 78 | 67
3 | C[N+](C)(C)CC(=O)O [Betaine, betaine] | – | – | 0 | 35 | < 5 | 0 | – | – | – | –
4 | C[N+](C)(C)CC(O)CC(=O)[O-] (stereo not drawn) [Carnitine, carnitine] | – | – | 0 | < 1 | 75 | 62 | particularly successful | 87 | 70 | –
